“Also recorded” adds a separate entry of the source. Like-named read-outs stand apart in the source and are kept apart here.
Columns and labels:
PAD4 [1] = biological target: T1, PAD4 (Homo sapiens, UniProt Q9UM07); test: Standard PAD4 assay (citrulline formation from BAEE), IC50 studies; format: biochemical
T1 construct: made in house
Description: Reactions were quenched by flash freezing in liquid N2. The amount of Cit produced was then quantified according to methods known in the art. […] Inhibition Studies.

PAD4 [2] = biological target: T1, PAD4; test: ABPP-based inhibitor screen: competition with RFA for labelling of PAD4, gel fluorescence; format: binding; conditions: compound 2.5 mM, RFA 10 μM, PAD4 2 μM, 30 min at 37° C.
Experimental: Very generally, potential inhibitor compounds are incubated individually with PAD4 in the presence of RFA for 30 min at 37° C.; at which point the reactions are quenched with SDS-PAGE loading dye and the mixtures are run on an SDS-PAGE gel. The amount of fluorescent PAD4 can then be quantified using a molecular imaging system. PAD4 inhibitors are readily identified by a decrease in fluorescence intensity.
RFA (10 μM final) and a particular compound from the library (2.5 mM final) were pre-incubated in Screening Buffer (500 μM TCEP, 10 mM CaCl2, 100 mM HEPES 7.6, 50 mM NaCl) for 10 min at 37° C. PAD4 (2 μM final) was then added to this mixture and incubated for 30 min at 37° C. The reaction was quenched with 6×SDS-PAGE Dye, incubated at 95° C. for 10 min, and then loaded onto a 12% SDS-PAGE gel. After electrophoresis, the gel was placed in destaining buffer (10% glacial acetic acid, 45% methanol, 45% ddH2O) until the fluorescence was measured using a fluorescence based molecular imaging station (Kodak Image Station 2000MM; excitation at 535 nm, emission at 600 nm). The protein gel was then stained and destained to ensure equal protein loading. A sample without a potential inhibitor was used as a control.

PAD4 [3] = biological target: T1, PAD4; test: Inhibition studies: kinetic analysis of PAD4 activity versus BAEE concentration; format: biochemical; conditions: product formation linear with respect to time
PAD4 [4] = biological target: T1, PAD4; test: as above; format: biochemical; conditions: for kinetic mechanism of PAD4 inhibition: Lineweaver-Burk plots; for Ki: BAEE 0-20 mM, 0.2 μM PAD4
Experimental: PAD4 activity was measured as a function of substrate concentration in the absence and presence of increasing concentrations of each inhibitor.
Briefly, the compounds were incubated in Reaction Buffer containing various concentrations of BAEE (0-20 mM) for 10 minutes at 37° C. PAD4 (0.2 μM) was then added to initiate the reaction and allowed to proceed for 6 additional minutes. Reactions were then quenched by flash freezing in liquid N2 and the amount of Cit produced was quantified.
[formula] using GraFit version 5.0.11.

[5] = 1 mM BAEE, 0.2 μM PAD4, 15 min pre-incubation at 37° C.

T1 sequence (Q9UM07 whole entry): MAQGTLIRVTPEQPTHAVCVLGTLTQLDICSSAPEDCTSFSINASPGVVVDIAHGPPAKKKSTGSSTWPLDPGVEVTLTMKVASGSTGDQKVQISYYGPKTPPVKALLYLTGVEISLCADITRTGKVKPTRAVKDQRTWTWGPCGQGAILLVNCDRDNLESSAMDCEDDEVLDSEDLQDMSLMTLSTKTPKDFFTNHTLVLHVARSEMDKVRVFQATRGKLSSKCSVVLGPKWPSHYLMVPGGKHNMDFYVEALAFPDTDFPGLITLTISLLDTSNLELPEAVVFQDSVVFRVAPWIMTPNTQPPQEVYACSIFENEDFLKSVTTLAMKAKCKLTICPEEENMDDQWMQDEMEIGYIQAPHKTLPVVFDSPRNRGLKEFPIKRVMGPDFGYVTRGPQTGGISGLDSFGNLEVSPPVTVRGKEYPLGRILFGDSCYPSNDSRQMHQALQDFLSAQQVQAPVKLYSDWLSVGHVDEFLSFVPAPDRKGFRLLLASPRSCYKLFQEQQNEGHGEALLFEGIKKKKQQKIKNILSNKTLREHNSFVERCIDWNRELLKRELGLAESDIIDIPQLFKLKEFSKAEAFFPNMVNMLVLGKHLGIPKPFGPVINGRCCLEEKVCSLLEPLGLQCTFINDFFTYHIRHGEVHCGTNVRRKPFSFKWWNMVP

Compound | IC50 (PAD4 [1]; [5]) | decrease in fluorescence intensity of PAD4 (PAD4 [2]) | further results
Cn1cnc([N+](=O)[O-])c1Sc1ncnc2nc[nH]c12 [Azathioprine] | > 7500 µM |  | 
CCCC1CC(C(=O)NC(C(C)Cl)C2OC(SC)C(O)C(O)C2O)N(C)C1 (stereo not drawn) [Clindamycin] |  | Intermediate effects | 
CN(C)[C@H]1C(O)=C(C(N)=O)C(=O)C2(O)C(O)=C3C(=O)c4c(O)ccc(Cl)c4C(C)(O)C3CC12 (stereo partly drawn) [Chlortetracycline] |  |  | reversibility of PAD4 inhibition (PAD4 [3]): reversible; kinetic mechanism of PAD4 inhibition (PAD4 [4]): mixed inhibition; also recorded: mixed inhibitors
Nc1ccc(O)c(C(=O)O)c1 [5-Amino-salicylic Acid] | > 10000 µM | little to no decrease | 
Leflunomide | 2400 ± 800 µM | Intermediate effects | 
Azithromycin | > 10000 µM | little to no decrease | 

Now from value to compound, other results behind:

IC50 (PAD4 [1]; [5]) | decrease in fluorescence intensity of PAD4 (PAD4 [2]) | Compound | further results
7500 ± 200 µM | little to no decrease | COc1cc(Cc2cnc(N)nc2N)cc(OC)c1OC [Trimethoprim] | 
100 ± 10 µM |  | CN(C)[C@H]1C(O)=C(C(N)=O)C(=O)C2(O)C(O)=C3C(=O)c4c(O)cccc4C(C)(O)C3CC12 (stereo partly drawn) [Tetracycline] | 
> 10000 µM | little to no decrease | Nc1ccc(S(=O)(=O)Nc2ccccn2)cc1 [Sulfapyridine] | 
> 10000 µM | little to no decrease | Sulfamethox-azole | 
> 10000 µM | Intermediate effects | CN(Cc1cnc2nc(N)nc(N)c2n1)c1ccc(C(=O)N[C@@H](CCC(=O)O)C(=O)O)cc1 [Methotrexate] | 
620 µM | strong decrease | CN(C)c1ccc(O)c2c1C[C@H]1C[C@H]3[C@H](N(C)C)C(O)=C(C(N)=O)C(=O)[C@@]3(O)C(O)=C1C2=O [Minocycline] | reversibility of PAD4 inhibition (PAD4 [3]): reversible; IC50 (PAD4 [1]; standard assay): 620 µM; Ki (PAD4 [4]; read-out: Kii): 630 ± 150 µM; Ki (PAD4 [4]; read-out: Kis): 180 ± 60 µM; kinetic mechanism of PAD4 inhibition (PAD4 [4]): mixed type inhibitor; also recorded: mixed inhibitors
 | strong decrease | [H]/N=C(/N)N[C@H]1[C@H](O)[C@@H](O)[C@H](O[C@@H]2O[C@@H](C)[C@](O)(C=O)[C@H]2O[C@@H]2O[C@@H](CO)[C@H](O)[C@@H](O)[C@@H]2NC)[C@@H](N/C(N)=N\[H])[C@@H]1O [Streptomycin] | reversibility of PAD4 inhibition (PAD4 [3]): reversible; deimination of the compound by PAD4 (substrate) (PAD4 [1]): not deiminated; kinetic mechanism of PAD4 inhibition (PAD4 [4]): competitive inhibitor

Reference: US8007996B2, “Methods to identify protein arginine deiminase 4 inhibitors” (University of South Carolina, priority 2007, dated 2011)
